This is an account of results in patent US12637410B2, “Vesicular monoamine transporter-2 ligands and their use in the treatment of psychostimulant abuse” (priority 2016, dated 2026).

Usually half-life stands for the time needed for the level to fall by half in the phase considered. The low end stands for fast loss, the high end for slow loss. By Ki is commonly meant a measure of affinity in units of concentration, obtained from inhibition or displacement. Lower therefore signals higher affinity. For orientation: bioavailability means the share of a dose that reaches the circulation, judged against a reference dose that is usually intravenous. In general, CLint scaled refers to the capacity of the preparation to metabolise the compound, expressed as a volume cleared per time.

The conditions of data set [1]: female, Sprague-Dawley, 0.08 µM, pH 7.4.
Description: (§1) Each plate holds triplicate samples of two controls (0.4 mM) and up to 14 compounds (0.08 mM) in rat and human liver microsomes. Aliquots of each well of the plate (175 μl of each well) were transferred from the master plate into 5 assay plates. […] NADPH regenerating system solution A (6.05 ml, Fisher Scientific, #NC9255727) was combined with NADPH regenerating system solution B (1.21 ml, Fisher Scientific, #NC9016235) in potassium phosphate buffer (15.8 ml, 0.1 M, pH 7.4, 37° C.). The resulting NADPH solution (43.8 μl) was added to each well of all the 96-well assay plates and mixed with pipette briefly making the final protein and compound concentrations respectively: 0.5 mg/ml, 0.08 μM (0.4 μM for controls). Plates were sealed, and all plates except the 0-hr plate were incubated at 37° C., shaken at a speed of 60 rpm. A single assay plate was tested at each time point: 0.5 hr, 1 hr, 2 hr, and 4 hr. At each time point, 437.5 μL of pre-cooled internal standard was added each well of the plate to quench the reaction. […] 120 μl supernatant was transferred to a 96-well plate, centrifuged again and analyzed by UPLC-MS (Waters Inc., Milford, MA). The compounds and internal standard were detected by selected ion recording (SIR).
(§2) The amount of material was measured as a ratio of peak area to the internal standard and graphed. Using the slope from the initial linear portion of this curve, the degradation rate constant is calculated using equation [1]. The rate constant was then used to calculate the compounds half-life in plasma using equation [2].
The nature of data set [2]: in vitro. Particulars: female, Sprague-Dawley, rat, pH 7.4.
Description: as §1, §2
Data set [3] in a line: in vitro. Particulars: both, human, pH 7.4.
Description: as §1, §2
For a further data set, the target named is T1, VMAT2 (Rattus norvegicus, UniProt Q01827).
T1 construct: from tissue; host or cells: rat striatum, isolated synaptic vesicles
T1 sequence (Q01827 whole entry): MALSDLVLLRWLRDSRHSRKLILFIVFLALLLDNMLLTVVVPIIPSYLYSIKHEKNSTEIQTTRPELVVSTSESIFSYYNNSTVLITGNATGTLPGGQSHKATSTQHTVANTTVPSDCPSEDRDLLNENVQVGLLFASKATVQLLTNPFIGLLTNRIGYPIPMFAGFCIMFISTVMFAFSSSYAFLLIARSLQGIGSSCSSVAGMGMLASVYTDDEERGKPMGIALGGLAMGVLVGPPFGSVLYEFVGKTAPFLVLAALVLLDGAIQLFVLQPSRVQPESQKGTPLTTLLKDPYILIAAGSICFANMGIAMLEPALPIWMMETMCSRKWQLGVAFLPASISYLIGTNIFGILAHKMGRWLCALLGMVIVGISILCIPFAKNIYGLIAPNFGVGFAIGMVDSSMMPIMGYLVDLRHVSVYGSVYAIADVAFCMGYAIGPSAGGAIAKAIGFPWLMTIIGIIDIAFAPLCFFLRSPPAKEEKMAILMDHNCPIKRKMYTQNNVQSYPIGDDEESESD
Description: [3H]Dopamine ([3H]DA) uptake assay, vesicular preparation. The format is biochemical.

A further data set deals with METH self-administration. Particulars: in vivo; cited from earlier work.
The test system of a further data set is rat striatal slices. As to conditions: cited from earlier work.
In data set [4] the test system is METH-stimulated locomotor activity. In words: METH-stimulated locomotor activity in rats. Type of data set: in vivo, rat. Particulars: s.c. On the procedure:
A series of VMAT2 inhibitors were synthesized and evaluated for their activity at VMAT2, dopamine transporters (DAT), and serotonin transporters (SERT) using rat striatum, hERG channels expressed by HEK-293 cells, and for their effect on METH-stimulated locomotor activity in rats.
The compounds of the invention were also evaluated for their effect on METH-stimulated locomotor activity in rats.

The conditions of data set [5]: both, 0.08 µM, pH 7.4.
Description: as §1, §2
The target of a further data set is T2, hERG channel (Homo sapiens, UniProt Q12809).
T2 construct: purchased; host or cells: HEK-293 cells stably expressing hERG (membranes)
T2 sequence (Q12809 whole entry): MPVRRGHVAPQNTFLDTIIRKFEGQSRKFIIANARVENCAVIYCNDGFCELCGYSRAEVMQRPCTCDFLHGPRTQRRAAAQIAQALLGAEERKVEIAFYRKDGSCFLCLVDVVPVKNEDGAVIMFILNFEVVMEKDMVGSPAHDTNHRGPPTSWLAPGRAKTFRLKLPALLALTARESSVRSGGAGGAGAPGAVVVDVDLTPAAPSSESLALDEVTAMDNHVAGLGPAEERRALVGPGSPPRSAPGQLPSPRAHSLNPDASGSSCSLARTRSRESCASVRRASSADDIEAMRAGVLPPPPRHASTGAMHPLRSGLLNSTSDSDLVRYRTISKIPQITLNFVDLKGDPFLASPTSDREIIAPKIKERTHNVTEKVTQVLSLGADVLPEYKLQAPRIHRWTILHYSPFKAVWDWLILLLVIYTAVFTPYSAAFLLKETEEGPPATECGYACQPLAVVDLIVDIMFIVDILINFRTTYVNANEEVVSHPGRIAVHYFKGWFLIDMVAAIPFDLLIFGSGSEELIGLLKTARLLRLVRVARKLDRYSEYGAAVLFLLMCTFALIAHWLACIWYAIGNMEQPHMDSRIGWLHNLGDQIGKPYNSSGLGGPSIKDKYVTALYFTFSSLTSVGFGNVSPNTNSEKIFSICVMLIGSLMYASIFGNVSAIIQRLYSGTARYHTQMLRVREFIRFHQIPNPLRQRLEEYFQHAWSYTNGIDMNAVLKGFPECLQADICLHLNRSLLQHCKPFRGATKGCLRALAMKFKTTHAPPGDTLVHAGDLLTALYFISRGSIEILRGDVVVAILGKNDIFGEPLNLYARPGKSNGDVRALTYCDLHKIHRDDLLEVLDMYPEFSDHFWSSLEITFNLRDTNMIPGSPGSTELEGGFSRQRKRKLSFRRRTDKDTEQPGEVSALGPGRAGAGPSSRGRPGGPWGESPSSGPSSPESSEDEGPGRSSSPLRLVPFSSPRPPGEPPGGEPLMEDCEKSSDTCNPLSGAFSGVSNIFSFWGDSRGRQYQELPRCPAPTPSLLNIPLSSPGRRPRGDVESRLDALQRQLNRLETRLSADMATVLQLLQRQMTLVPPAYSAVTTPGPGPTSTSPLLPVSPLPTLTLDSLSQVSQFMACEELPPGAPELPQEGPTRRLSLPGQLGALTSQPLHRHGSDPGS
In words: [3H]Dofetilide binding assay, HEK-293 cell membrane preparation. As to conditions: hERG Binding: Mean Ki (nM). Here is the method: Membranes were suspended in assay buffer (50 mM Tris, 10 mM KCl, 1 mM MgCl2, pH 7.4) prior to the experiment. […] Nonspecific binding was determined in the presence of amitriptyline (1 mM). Samples were incubated for 1 hr. at 24° C., followed by rapid filtration.
On the technique in general: The hERG channel carries a current that helps repolarise heart muscle cells.

Another data set can be described thus: in vivo. Particulars: male, Sprague-Dawley, rat.
Data set [6] is described as follows: Pharmacokinetic assays in rats (iv, po, sc). As to conditions: rat.
Description: (§3) Animals: Oral and intravenous dose pharmacokinetic studies were conducted in tandem in age matched female Swiss Webster mice and/or age matched male Sprague-Dawley rats purchased from Envigo-Harlan. Animals were housed in IVC cages with wood chip bedding and given food and water ad libitum.
(§4) Dose Formulation and Administration Volumes: Hydrochloric acid salts or free base forms were used for formulation.
(§5) Pharmacokinetic Studies: Groups of 6 animals were dosed with formulated test compound by bolus lateral tail vein injection (iv), by oral gavage (po), or by subcutaneous injection (sc) into left hind flank. […] Whole blood samples were collected into microtubes and centrifuged at 4000×g for 2 min. Plasma supernatants were collected and immediately frozen on dry ice, then transferred to a −80° C. freezer to await processing for LC-MS/MS analysis. Typical dose rates were 2 mg/kg iv, 10 mg/kg po, and <30 mg/kg sc.
(§6) Plasma calibrators (usually 0.25, 0.5, 1, 5, 15, 30, 100, 400, 700, and 1000 ng/mL) were generated by the addition of 5 μL of appropriate spiking solution into 100 μL blank plasma followed by vortex mixing. Plasma QC samples (usually 0.75, 25, 500, and 850 ng/mL) were prepared in a similar manner using an independent 2nd analyte stock solution. Calibrators and QCs were stored alongside experimental samples at −80° C. until analysis.
(§7) Analyte and internal standard contained in 5 μL sample injections (15° C. temp.; 1.5 mL 0.1% formic acid in MeOH or 1:1 MeOH: isopropanol injector rinse; 10 sec rinse dip time) were eluted from a guard-protected (2.7 μL, 3×5 mm) Agilent Poroshell 120 EC-C18 (2.7 μL, 3×50 mm; oven temp. 40° C.) analytical column with a 0.1% formic acid in water (mobile Phase-A): 0.1% formic acid in acetonitrile (mobile Phase-B) gradient. […] Positive-mode ESI Turbo V® source and MS gas, temperature, and probe settings were optimized for 0.4 mL flow rate at CUR=35/ISV=4500/TEM=550/GS1=65/GS2=65/CAD=10 with the probe position=7/0.5 horizontal/vertical. […] ISTD voltage potentials were set at DP=70, EP=10, CE=35 and CXP=6. Sample sequences consisted of single randomized experimental sample injections flanked by sets of blanks, calibrators and QCs with QCs interspersed, as needed, to maintain >5% total QC to experimental sample occurrence. High QCs (5,000 and 10,000 ng/mL) were inserted at end of sequence prior to second calibrator injections. Calibration curves were typically constructed by weighted (1/x^2) non-linear regression analysis of analyte/ISTD concentration ratios to analyte/ISTD peak area ratios using AB SciexMultiQuant software (Ver 3.0.31721.0).
Data set [7] is described as follows: Microsomal assays, rat liver microsomes. Particulars: female, Sprague-Dawley, rat, pH 7.4. On the technique in general: Liver microsomes are vesicles of endoplasmic reticulum, rich in cytochrome P450 enzymes.
Description: as §1, §2
The target of data set [8] is dopamine transporter (DAT) (Rattus norvegicus, UniProt P23977). In words: [3H]DA uptake assay, synaptosomal preparation.
dopamine transporter (DAT), sequence (P23977 whole entry): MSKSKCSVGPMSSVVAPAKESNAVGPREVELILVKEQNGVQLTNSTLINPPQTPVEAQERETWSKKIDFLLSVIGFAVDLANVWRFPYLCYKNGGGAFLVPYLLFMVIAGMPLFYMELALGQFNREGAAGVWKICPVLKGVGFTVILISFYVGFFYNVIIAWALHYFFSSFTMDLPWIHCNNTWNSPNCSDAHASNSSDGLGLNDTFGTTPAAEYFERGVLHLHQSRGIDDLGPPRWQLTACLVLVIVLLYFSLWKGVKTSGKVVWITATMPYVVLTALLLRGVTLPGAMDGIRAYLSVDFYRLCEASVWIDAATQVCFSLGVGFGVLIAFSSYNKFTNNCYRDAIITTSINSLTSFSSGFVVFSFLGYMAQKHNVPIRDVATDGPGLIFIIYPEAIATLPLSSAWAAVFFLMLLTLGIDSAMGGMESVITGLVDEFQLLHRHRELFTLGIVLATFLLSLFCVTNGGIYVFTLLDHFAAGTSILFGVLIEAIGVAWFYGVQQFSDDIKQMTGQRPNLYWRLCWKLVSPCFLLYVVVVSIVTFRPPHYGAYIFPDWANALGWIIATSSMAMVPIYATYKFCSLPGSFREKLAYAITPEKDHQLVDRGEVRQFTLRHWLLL
Description: [^3H]DA and [3H]5-HT uptake into striatal synaptosomes was determined to evaluate compound inhibition of the dopamine transporter (DAT) and the serotonin transporter (SERT), respectively. […] Assays were performed in duplicate in a total volume of 500 μL (for DAT assays) or 250 μL (for SERT assays). Aliquots of the synaptosomal suspension (25 μL for DAT, 50 μL for SERT) were added to tubes containing assay buffer and various concentrations of analog (1 nM-100 μM), and incubated at 34° C. for 5 min. Nonspecific uptake was determined in the presence of nomifensine (10 μM) for DAT assays or fluoxetine (10 μM) for SERT assays. […] Samples were placed on ice, and 50 μL of 0.1 μM [^3H]DA (for DAT assays) or 25 μL of 0.1 μM [^3H]5-HT (for SERT assays) was added to each tube, and incubated for 10 min at 34° C. Reactions were terminated by addition of 3 mL of ice-cold assay buffer and subsequent filtration and radioactivity retained by the filters was determined by liquid scintillation spectrometry (Tri-Carb 2100TR liquid scintillation analyzer; PerkinElmer Life and Analytical Sciences, Boston, MA).
The mark [9] stands for this setting: [3H]dofetilide binding, HEK-293 membranes, mean of n>=3 unless N given.

Description for in vivo: as §3, §4, §5, §6, §7

On to `OCC(Cc1ccc(F)cc1)NCCCc1ccc(Br)cc1` (stereo not shown) [Compound 154], for which the “Microsomal stability assays: Species/Half-life (hr) Rat” value in [1] came out at 0.1 h.

In the case of `CC(Cc1ccc(F)cc1)NC(=O)CCc1ccc([N+](=O)[O-])cc1` (stereo not shown) [Compound 293], the half-life at 0.08 µM in the data set “in vitro [2]” came out at 30 min; in the data set “in vitro [3]” it was 24 min. On VMAT2, this molecule gave a Ki of 10800 nM.

Take `Fc1ccc(CCCNC(Cc2ccccc2)Cc2ccccc2)cc1` [Compound 292]: the half-life at 0.08 µM in “in vitro [2]” is below 6 min; in the data set “in vitro [3]” it was 36 min. For the same molecule, at VMAT2, the affinity corresponds to a Ki of 346 nM.

With `CN1[C@@H](CCc2ccccc2)CCC[C@H]1CCc1ccccc1` [Lobelane], the METH self-administration entry in the data set on METH self-administration was “decreases METH self-administration”. Also, the “METH-evoked DA overflow” value in the data set with rat striatal slices is “decreases METH-evoked DA overflow”.

As for `COc1ccc(CCCN[C@@H](C)Cc2ccccc2)cc1.Cl` [Compound 10, (S)-3-(4-methoxyphenyl)-N-(1-phenylpropan-2-yl)propan-1-amine], the METH-stimulated locomotor activity entry in data set [4] (17 mg/kg) is “significant reduction”.

As for `COc1ccc(CCCN[C@H](C)Cc2ccccc2)cc1.Cl` [Compound 9], the METH-stimulated locomotor activity result in [4] (3 mg/kg) was “significant reduction”.

Turning to `FCC(Cc1ccc(-c2cncnc2)cc1)NCCCc1ccc(F)cc1` (stereo not shown) [Compound 68], in [5], the “Microsomal stability assays: Species/Half-life (hr) Human” value is 0.1 h. The molecule further had a Ki on VMAT2 of 5 nM.

For the molecule `CC(Cc1ccc(F)c(F)c1)NCCCc1ccc(NC(N)=O)cc1` (stereo not shown) [Compound 229], the Ki was 4290 nM at hERG channel (Table 4, mean, minimally n = 3); 4290 nM at hERG channel (setting [9]); 36 nM on VMAT2; 1530 nM in data set [8]. Moreover, the bioavailability in “in vivo” (po) was found to be 94%. Moreover, the “Bioavail. (F %) Frat” value in [6] is recorded as “Frat: 22%”. The CLint scaled at 0.08 µM in [7] is 41 mL/min/kg.

For the molecule `CC(Cc1ccc(F)c(F)c1)NCCCc1ccc(S(N)(=O)=O)cc1` (stereo not shown) [Compound 230], the Ki stood at 1030 nM on hERG channel (Table 4, mean, minimally n = 3); 1030 nM at hERG channel (setting [9]); 42 nM at VMAT2; 8240 nM in data set [8]. For the same molecule, the bioavailability in “in vivo” (po) was 94%; in “in vivo” (sc), 44%. Further, in data set [6], the “Bioavail. (F %) Frat” value is on record as “Frat: >100%”. Further, the CLint scaled at 0.08 µM in data set [7] is below 17 mL/min/kg.
